Where two headings read alike, the source gives them in different places.
Key:
rats [1] = assay: Loss of righting reflexes (LORR) assay in rats, ED50 by up and down method; format: in vivo, rat; conditions: tail vein, class symbols; for ED50: Rattus norvegicus
Procedure, shortened: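 ED50 obtained by up-and-down dosing, with righting-reflex loss over 30 s counted as general anesthesia. Compounds injected into the tail vein (0.1 mL/s) of male Sprague-Dawley rats weighing 250-300 g.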

rats [2] = tested on: rats
Experimental: Adult male Sprague-Dawley rats (250-300 g) were selected for the experiment. […] The anesthesia effects of the compounds were assessed in rats using a LORR assay and a period >30 s was considered as an indicator of general anesthesia. Then the up and down method was used to determine 50% effective dose (ED50). The drugs were administered through the tail vein of rats in a volume of 0.6 mL and at a rate of 0.1 mL/s.

rats [3] = assay: Pharmacological characteristics at equivalent doses (2×ED50) in rats; conditions: 2×ED50, tail vein; for Adverse reactions: Red urine (incidence): DMSO solution (DMSO alone 10/10); for Onset time: time of LORR; for Adverse reactions: Tremor (incidence): animals affected/animals
Procedure, shortened: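 Anesthesia onset, recorded as time of LORR, was measured after a 2×ED50 tail-vein injection (0.6 mL, 0.1 mL/s). Animals were male Sprague-Dawley rats of 250-300 g, n=8.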

[4] = tested on: secretion of corticosterone, H295R cell line; assay: cells; format: cell-based; conditions: for EC50: read-out: EC50 (Corticosterone)
Experimental: (§1) The Effects of the Compounds on Adrenocortical Function In Vitro Test
(§2) Then secretion of the cortisol and corticosterone in the supernatant, was measured using HPLC-MS/MS method to determine whether the compounds of the present invention had adrenotoxic potential.

[5] = tested on: secretion of cortisol, H295R cell line; assay: cells; format: cell-based; conditions: for EC50: read-out: EC50 (Cortisol)
Experimental: as §1, §2

rats [6] = format: in vivo, rat; conditions: rats of the MAP/HR figures, 2×ED50, tail vein; same value in min
Procedure, shortened: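 Hemodynamic stability judged from mean arterial pressure and heart rate, recorded at 15 s intervals over 30 min pre- and post-dose. Dosing was through a tail-vein indwelling catheter in rats carrying implanted aortic/ventricular catheters and ECG wires, operated ≥1 week earlier.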

rats [7] = conditions: continuous tail vein infusion at 2×MIR, LORR maintained 1 hour
Experimental: Pharmacological Effects of the Compounds on Continuous Infusion in Rats
Adult male Sprague-Dawley rats with body weight ranging from 250 to 300 gm were selected for continuous infusion test. […] Time to recovery of righting reflex from stopping infusion, and time to fully awake from stopping infusion were recorded.

rats [8] = format: in vivo, rat; conditions: rats of the MAP/HR figures, 2×ED50, tail vein
[9] = H295R cell line, 0.1-10000 nM, HPLC-MS/MS, Table D3
[10] = H295R cell line, 0.1-10000 nM, HPLC-MS/MS, Table E3

Row | Structure (SMILES) | ED50 (rats [1]) [mg/kg] | Approximate therapeutic index (rats [2]) | Minimal lethal dose (rats [2]) [mg/kg] | Righting reflex duration (rats [3]) [min] | Adverse reactions: Red urine (incidence) (rats [3]) | Onset time (rats [3]) [min] | Corticosterone as an indicator to determine the presence of inhibition [4, 9] | EC50 ([4]; Homo sapiens, NCI-H295R) [µM] | Cortisol as an indicator to determine the presence of inhibition [5, 9] | EC50 ([5]; Homo sapiens, NCI-H295R) [µM] | recovery time of the test animals' righting reflex (rats [6]) [min] | Onset time (rats [7]; Table D4) [min] | Recovery time after stopping infusion (rats [7]; Table D4) [min] | Types and incidence of adverse reactions (rats [7]; Table D4) | recovery time of the test animals' righting reflex (rats [8]) [s] | Corticosterone as an indicator to determine the presence of inhibition [4, 10] | Cortisol as an indicator to determine the presence of inhibition [5, 10] | Onset time (rats [7]; Table E4) [min] | Recovery time after stopping infusion (rats [7]; Table E4) [min] | Types and incidence of adverse reactions (rats [7]; Table E4) | other results
1 | C=CC#CC(C)(C)OC(=O)c1cncn1[C@H](C)c1ccccc1 [Compound D37] | 0.5 to 1 | >13 | >10 | 3.09 ± 2.03 | Red urine (8/8) | 0.24 ± 0.11 | 0 | > 1 | 0 | > 1 | 2.75 | 2 to 3 | 12 to 18 | Tremor (4/6) | 165 | – | – | – | – | – | –
2 | CC#CC1(OC(=O)c2cncn2[C@H](C)c2ccccc2)CCCCC1 [Compound D40] | 0.1 to 0.5 | >16 | >4 | 1.78 ± 1.94 | Red urine (8/8) | 0.73 ± 0.43 | 0 | > 1 | 0 | > 1 | 7.35 | 2 to 3 | 10 to 15 | Tremor (5/6) | 441 | – | – | – | – | – | Adverse reactions: Hindlimb rigidity (incidence) (rats [3]): Hindlimb rigidity (1/8),
3 | C/C=C/C1(OC(=O)c2cncn2[C@H](C)c2ccccc2)COC1 [Compound D42] | 0.5 to 1 | >12 | >9 | 2.50 ± 1.18 | Red urine (8/8) | 0.13 ± 0.02 | 0 | > 1 | 0 | > 1 | 5.38 | 3 to 4 | 12 to 16 | Tremor (6/6) | 323 | – | – | – | – | – | –
4 | C=C=CC1(OC(=O)c2cncn2[C@H](C)c2ccccc2)CCCCC1 [Compound D43] | 0.01 to 0.1 | >13 | >1 | 1.45 ± 0.78 | Red urine (8/8) | 0.22 ± 0.07 | 0 | > 10 | 0 | > 10 | 1.95 | 2 to 3 | 11 to 14 | Tremor (4/6) | 117 | – | – | – | – | – | Adverse reactions: Hindlimb rigidity (incidence) (rats [3]): Hindlimb rigidity (2/8),
5 | COCC1(COC(=O)c2c(F)ncn2[C@H](C)c2ccccc2)CCC1 [Compound E2] | 0.1 to 0.5 | >25 | >5 | 2.20 ± 1.11 | (8/8) | 0.23 ± 0.07 | – | > 10 | – | > 10 | 2.15 | – | – | – | 129 | 0 | 0 | 3 to 4 | 11 to 13 | Tremor (2/6) | –
6 | CC(=O)C(C)(C)OC(=O)c1c(F)ncn1[C@H](C)c1ccccc1 [Compound E6] | 0.5 to 1 | >24 | >10 | 2.73 ± 1.08 | urine (8/8) | 0.13 ± 0.04 | – | > 10 | – | > 10 | 2.90 | – | – | – | 174 | 0 | 0 | 2 to 3 | 9 to 11 | Tremor (4/6) | Adverse reactions: Tremor (incidence) (rats [3]): (1/8), Red
7 | C[C@H](c1ccccc1)n1cnc(F)c1C(=O)OCC1CC1 [Compound E8] | – | >22 | >4 | 1.90 ± 0.82 | (8/8) | 0.38 ± 0.06 | – | – | – | – | 2.00 | – | – | – | 120 | 0 | 0 | 3 to 4 | 12 to 14 | Tremor (1/6), Tongue stretching (4/6) | ED50 (mg/kg) (rats [1]): B (B means that the measured ED50 is in the range of 0.10-0.50 mg/kg (excluding 0.10 mg/kg, including 0.50 mg/kg).); Sedation duration (mg/kg) (rats [3]): 7.12 ± 0.81; EC50 [4, 10]: > 0.1 µM; EC50 [5, 10]: > 0.1 µM
8 | CC#CCOC(=O)c1c(F)ncn1[C@H](C)c1ccccc1 [Compound E35] | 0.1 to 0.5 | >17 | >4 | 2.30 ± 0.80 | urine (8/8) | 0.32 ± 0.11 | – | > 10 | – | > 10 | 2.52 | – | – | – | 151 | 0 | 0 | 2 to 3 | 10 to 13 | Tongue stretching (2/6), Tremor (3/6) | Adverse reactions: Tremor (incidence) (rats [3]): (4/8), Red

— patent US11434205B2, “Substituted imidazole carboxylate derivatives and the use thereof” (priority 2018, dated 2022)
